From patent US10556888B2, “Pyrazole compounds or salts thereof, preparation methods therefor, herbicidal compositions and use thereof” (QINGDAO KINGAGROOT CHEMICAL COMPOUNDS CO., LTD, priority 2015, dated 2020)

Assays:
[1] = tested on: Monocotyledonous and dicotyledonous weed; assay: Post-emergence test experiment, weed control effect (Table 2); assay type: in vivo; design: key to weed control effect, Setaria viridis (level) / weed control effect, Rorippa indica (level) / weed control effect, Abutilon theophrasti (level) / weed control effect, Echinochloa crus-galli (level) / weed control effect, Digitaria sanguinalis (level): Level 10: completely dead; Level 9: above 90% growth inhibition rate; Level 8: above 80% growth inhibition rate; Level 7: above 70% growth inhibition rate; Level 6: above 60% growth inhibition rate; Level 5: above 50% growth inhibition rate; Level 4: above 30% growth inhibition rate; Level 3: above 20% growth inhibition rate; Level 2: above 10% growth inhibition rate; Level 1: above 1-10% growth inhibition rate; Level 0: no effect; conditions: 3 weeks after spraying, greenhouse
Description: (§1) Post-emergence test experiment: Monocotyledonous and dicotyledonous weed seeds and main crop seeds (i.e. wheat, corn, rice, soybean, cotton, oilseed, millet and sorghum.) were put into a plastic pot loaded with soil. Then covered with 0.5-2 cm soil, the seeds were allowed to grow in good greenhouse environment. The test plants were treated at 2-3 leaf stage 2-3 weeks after sowing. The test compounds of the invention were dissolved with acetone respectively, then added with 80 tween and diluted by certain amount of water to certain concentration. The solution was sprayed to the plants with a sprayer. Then the plants were cultured for 3 weeks in the greenhouse.

[2] = tested on: main crop (wheat, corn, rice, soybean, cotton, oilseed, millet and sorghum); assay: Post-emergence test experiment, main crops (Table 2); assay type: in vivo; design: key: Level 10: completely dead; Level 9: above 90% growth inhibition rate; Level 8: above 80% growth inhibition rate; Level 7: above 70% growth inhibition rate; Level 6: above 60% growth inhibition rate; Level 5: above 50% growth inhibition rate; Level 4: above 30% growth inhibition rate; Level 3: above 20% growth inhibition rate; Level 2: above 10% growth inhibition rate; Level 1: above 1-10% growth inhibition rate; Level 0: no effect; conditions: 3 weeks after spraying, greenhouse
Description: as §1

| SMILES | weed control effect, Abutilon theophrasti (level) ([1]; 60 g/ha) | weed control effect, Bidens pilosa (level) ([1]; 60 g/ha) | weed control effect, Digitaria sanguinalis (level) ([1]; 60 g/ha) | weed control effect, Echinochloa crus-galli (level) ([1]; 60 g/ha) | weed control effect, Rorippa indica (level) ([1]; 60 g/ha) | weed control effect, Setaria viridis (level) ([1]; 60 g/ha) | effect on crop, corn (level) ([2]; 60 g/ha) | effect on crop, rice (level) ([2]; 60 g/ha) | effect on crop, wheat (level) ([2]; 60 g/ha) | weed control effect, Abutilon theophrasti (level) ([1]; 120 g/ha) | weed control effect, Bidens pilosa (level) ([1]; 120 g/ha) | weed control effect, Digitaria sanguinalis (level) ([1]; 120 g/ha) | weed control effect, Echinochloa crus-galli (level) ([1]; 120 g/ha) | weed control effect, Rorippa indica (level) ([1]; 120 g/ha) | weed control effect, Setaria viridis (level) ([1]; 120 g/ha) | effect on crop, corn (level) ([2]; 120 g/ha) | effect on crop, rice (level) ([2]; 120 g/ha) | effect on crop, wheat (level) ([2]; 120 g/ha) |
| --- | --- | --- | --- | --- | --- | --- | --- | --- | --- | --- | --- | --- | --- | --- | --- | --- | --- | --- |
| Cc1nn(C)cc1C(=O)Oc1c(C(=O)c2ccc(S(C)(=O)=O)c(Cn3cccn3)c2Cl)c(C)nn1C [Compound 01] | 10 | 8 (Level 8: above 80% growth inhibition rate) | 10 | 10 | 10 | 10 | 1 (Level 1: above 1-10% growth inhibition rate) | 1 (Level 1: above 1-10% growth inhibition rate) | 1 (Level 1: above 1-10% growth inhibition rate) | – | – | – | – | – | – | – | – | – |
| Cc1cc(C)n(Cc2c(S(C)(=O)=O)ccc(C(=O)c3c(C)nn(C)c3OC(=O)c3cn(C)nc3C)c2Cl)n1 [Compound 03] | – | – | – | – | – | – | – | – | – | 4 (Level 4: above 30% growth inhibition rate) | 6 (Level 6: above 60% growth inhibition rate) | 0 | 10 | 0 | 6 (Level 6: above 60% growth inhibition rate) | 0 | 0 | 0 |
| Cc1cnn(Cc2c(S(C)(=O)=O)ccc(C(=O)c3c(C)nn(C)c3OC(=O)c3cn(C)nc3C)c2Cl)c1 [Compound 04] | – | – | – | – | – | – | – | – | – | 6 (Level 6: above 60% growth inhibition rate) | 6 (Level 6: above 60% growth inhibition rate) | 1 (Level 1: above 1-10% growth inhibition rate) | 10 | 4 (Level 4: above 30% growth inhibition rate) | 5 (Level 5: above 50% growth inhibition rate) | 0 | 0 | 0 |
| Cc1nn(C)cc1C(=O)Oc1c(C(=O)c2ccc(S(C)(=O)=O)c(Cn3cc(Cl)cn3)c2Cl)c(C)nn1C [Compound 05] | – | – | – | – | – | – | – | – | – | 9 (Level 9: above 90% growth inhibition rate) | 8 (Level 8: above 80% growth inhibition rate) | 9 (Level 9: above 90% growth inhibition rate) | 10 | 10 | 5 (Level 5: above 50% growth inhibition rate) | 0 | 1 (Level 1: above 1-10% growth inhibition rate) | 0 |
| Cc1cnn(Cc2c(S(C)(=O)=O)ccc(C(=O)c3cnn(C)c3OC(=O)c3cn(C)nc3C)c2Cl)c1 [Compound 07] | – | – | – | – | – | – | – | – | – | 6 (Level 6: above 60% growth inhibition rate) | 6 (Level 6: above 60% growth inhibition rate) | 1 (Level 1: above 1-10% growth inhibition rate) | 10 | 4 (Level 4: above 30% growth inhibition rate) | 5 (Level 5: above 50% growth inhibition rate) | 0 | 0 | 0 |
| Cc1nn(C)cc1C(=O)Oc1c(C(=O)c2ccc(S(C)(=O)=O)c(Cn3cccn3)c2Cl)cnn1C [Compound 08] | 10 | 8 (Level 8: above 80% growth inhibition rate) | 7 (Level 7: above 70% growth inhibition rate) | 9 (Level 9: above 90% growth inhibition rate) | 10 | 7 (Level 7: above 70% growth inhibition rate) | 1 (Level 1: above 1-10% growth inhibition rate) | 1 (Level 1: above 1-10% growth inhibition rate) | 1 (Level 1: above 1-10% growth inhibition rate) | – | – | – | – | – | – | – | – | – |
| Cc1ccn(Cc2c(S(C)(=O)=O)ccc(C(=O)c3c(C4CC4)nn(C)c3OC(=O)c3cn(C)nc3C)c2Cl)n1 [Compound 09] | – | – | – | – | – | – | – | – | – | 7 (Level 7: above 70% growth inhibition rate) | 9 (Level 9: above 90% growth inhibition rate) | 2 (Level 2: above 10% growth inhibition rate) | 9 (Level 9: above 90% growth inhibition rate) | 10 | 6 (Level 6: above 60% growth inhibition rate) | 0 | 1 (Level 1: above 1-10% growth inhibition rate) | 0 |
| Cc1cc(C)n(Cc2c(S(C)(=O)=O)ccc(C(=O)c3c(C4CC4)nn(C)c3OC(=O)c3cn(C)nc3C)c2Cl)n1 [Compound 11] | – | – | – | – | – | – | – | – | – | 4 (Level 4: above 30% growth inhibition rate) | 6 (Level 6: above 60% growth inhibition rate) | 0 | 10 | 0 | 6 (Level 6: above 60% growth inhibition rate) | 0 | 0 | 0 |
| Cc1cnn(Cc2c(S(C)(=O)=O)ccc(C(=O)c3c(C4CC4)nn(C)c3OC(=O)c3cn(C)nc3C)c2Cl)c1 [Compound 12] | – | – | – | – | – | – | – | – | – | 6 (Level 6: above 60% growth inhibition rate) | 6 (Level 6: above 60% growth inhibition rate) | 0 | 10 | 4 (Level 4: above 30% growth inhibition rate) | 1 (Level 1: above 1-10% growth inhibition rate) | 0 | 0 | 0 |
| Cc1nn(C)cc1C(=O)Oc1c(C(=O)c2ccc(S(C)(=O)=O)c(Cn3cccn3)c2Cl)c(C2CC2)nn1C [Compound 13] | 10 | 8 (Level 8: above 80% growth inhibition rate) | 10 | 10 | 10 | 7 (Level 7: above 70% growth inhibition rate) | 0 | 1 (Level 1: above 1-10% growth inhibition rate) | 1 (Level 1: above 1-10% growth inhibition rate) | – | – | – | – | – | – | – | – | – |
| Cc1cnn(Cc2c(S(C)(=O)=O)ccc(C(=O)c3c(C)nn(C)c3OC(=O)c3cnn(C)c3)c2Cl)c1 [Compound 14] | – | – | – | – | – | – | – | – | – | 6 (Level 6: above 60% growth inhibition rate) | 6 (Level 6: above 60% growth inhibition rate) | 0 | 10 | 4 (Level 4: above 30% growth inhibition rate) | 1 (Level 1: above 1-10% growth inhibition rate) | 0 | 0 | 0 |
| Cc1ccn(Cc2c(S(C)(=O)=O)ccc(C(=O)c3c(C)nn(C)c3OC(=O)c3cnn(C)c3)c2Cl)n1 [Compound 15] | – | – | – | – | – | – | – | – | – | 9 (Level 9: above 90% growth inhibition rate) | 8 (Level 8: above 80% growth inhibition rate) | 4 (Level 4: above 30% growth inhibition rate) | 10 | 10 | 5 (Level 5: above 50% growth inhibition rate) | 0 | 1 (Level 1: above 1-10% growth inhibition rate) | 0 |
| Cc1nn(C)c(OC(=O)c2cnn(C)c2)c1C(=O)c1ccc(S(C)(=O)=O)c(Cn2cccn2)c1Cl [Compound 16] | 10 | 8 (Level 8: above 80% growth inhibition rate) | 10 | 10 | 10 | 8 (Level 8: above 80% growth inhibition rate) | 0 | 1 (Level 1: above 1-10% growth inhibition rate) | 1 (Level 1: above 1-10% growth inhibition rate) | – | – | – | – | – | – | – | – | – |
